The source made the active and inactive calls.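 The calls were made as follows: active = compounds giving half or more protection of infected cells from virus-caused growth loss, again on retest; inactive = the rest.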 Where a SMILES comes first, the peptide text is derived from it.
Test system: CEM cells HIV-1 protection, formazan growth assay
Assay: NCI AIDS Antiviral Assay
Details: for IC50: measured here: growth of uninfected CEM cells
In short: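 Screen of anti-HIV-1 activity in human CEM cells using a formazan-based growth measurement at five drug concentrations. Hits with 50% or greater protection were repeated, and confirmation required reproducible complete protection.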

Compound	outcome	EC50 [µM]	IC50 [µM]
CC(C)CC(NC(=O)C(Cc1ccc(O)cc1)NC(=O)C1CCCN1C(=O)C(NC(=O)C(CO)NC(=O)C(CCCCN)NC(=O)C(NC(=O)C(N)CCC(=O)O)C(C)C)C(C)O)C(=O)NC(CO)C(=O)NC(CCCCN)C(=O)O (stereo not drawn) (H-EVKSTPYLSK-OH; configuration not given here)	inactive	–	–
C1CSC(=[N+]2CC[N+](=C3SCCS3)CC2)S1	inactive	–	–
CCOC(=O)/C(C#N)=C(N)/C(=N\Nc1cccc(C(F)(F)F)c1)C(=O)OCC	inactive	–	–
O=C1C2CC=CCC2C(=O)N1n1c(Cc2ccc(Cl)cc2)n[nH]c1=O (stereo not drawn)	–	> 200	> 200
Sc1cc2c(c3ccccc13)Nc1ccccc1S2	–	> 200	123
NC(=O)c1ncn(CCN2CCN(C(=O)NCCCCCCNC(=O)N3CCN(CCn4cnc(C(N)=O)c4N)CC3)CC2)c1N	inactive	–	–
COc1cc(C(O)C(=O)c2nc3ccc([N+](=O)[O-])cc3[nH]c2=O)ccc1O (stereo not drawn)	–	> 251	> 251
Cc1cc2c(c(C(N)=O)c1C)-c1cccc(F)c1C2=O	inactive	–	–
COC(=O)c1cc(=O)nc(NN)s1	–	> 50.1	> 50.1
Cc1cc(NS(=O)(=O)c2ccc(Nc3c4ccccc4nc4c(C(=O)NC=O)cccc34)cc2)no1	–	> 200	12.3
CC1(C)COC(c2cccc3c2C2C=CC3O2)=N1 (stereo not drawn)	–	> 200	> 200
O=C(O)C12C3CCC(O3)C1(C(=O)O)C1CCC2O1 (stereo not drawn)	–	> 200	> 200
CC1(OCc2ccccc2)C(=O)N2C1N(C(=O)OCc1ccccc1)CC2(C)C (stereo not drawn)	–	> 251	53.7
COC(=O)C1=C(C(=O)OC)C(C(=O)OC)N2C=CC=CC2=C1C(=O)OC (stereo not drawn)	–	> 200	> 200
Nc1ccc(/C=C/c2ccc(NC(=O)c3cc(S(=O)(=O)O)c4cccnc4c3O)cc2S(=O)(=O)O)c(S(=O)(=O)O)c1	–	58.9	> 200
S=C1NCCN1C(=S)NC1CCCCC1	–	22.4	> 100
Cc1cn(C2CC(OC=O)C(CO)O2)c(=O)[nH]c1=O (stereo not drawn)	–	> 5750	61.7
OC1CCN(Cc2ccccc2)C[C@@H]1CNC12CC3CC(CC(C3)C1)C2 (stereo partly drawn)	–	> 100	93.3
COc1cc2c(cc1OCCCCN1C(=O)c3cccc4cccc(c34)C1=O)N=C[C@@H]1CCCN1C2=O	–	> 200	3.47
COC1CC[C@@H]2CC(=O)CC[C@]2(C)C1=O (stereo partly drawn)	inactive	–	–
Cc1ccc(-c2cn3c(nc4ccccc43)c(C)n2)cc1	–	> 200	66.1

Compound	outcome	EC50 [µM]	IC50 [µM]
COCCNC(=O)C1C(=O)C(=O)N(CCOC)C1=O (stereo not drawn)	inactive	–	–
ON1CCc2c([nH]c3ccccc23)C1c1ccc(Cl)cc1 (stereo not drawn)	inactive	–	–
CCc1cccc(C)c1NC(=S)NC(=O)c1ccccc1C(=O)NC(=S)Nc1c(C)cccc1CC	–	> 69.2	> 69.2
Nc1nc2c(ncn2C2CCC(CO)O2)c(=O)n1C(=O)c1ccccc1 (stereo not drawn)	–	37.2	> 100
Nc1cc2ncnn2c(SCC(=O)N/N=C/C(Br)=C\c2ccccc2)n1	–	> 200	7.94
CCOP(=O)(CCCC(O)CNc1cc(Cl)nc(N)n1)OCC (stereo not drawn)	–	> 200	> 200
C/C(N=NC(=S)N1CCCCCC1)=C1\C=CC=CN1O	–	> 123	2.14
Brc1ccc(-c2ccc(-c3ccc(-c4ccc(Br)s4)s3)s2)s1	–	> 200	> 200
O=C1/C(=C/c2ccc([N+](=O)[O-])cc2)C(=O)N(c2ccccc2)C1c1ccccc1 (stereo not drawn)	–	> 74.1	41.7
N#C/C(=C\c1ccc(Cl)cc1)c1nc(-c2cc3ccccc3oc2=O)cs1	–	> 151	> 151
CCOC(=O)c1ccc(N2N=C3C(=CC(=O)c4ccccc43)SCC2=O)cc1	–	> 47.9	19.5
CC(C)CC(=O)[O-].CC(C)CC(=O)[O-].N.N.N.N.[Co+3].[O-][Cl+3]([O-])([O-])O.[O-][Cl+3]([O-])([O-])[O-]	inactive	–	–
C[Si](C)(C)OC1c2[nH]c3ccccc3c2CN2C(=O)CCC12 (stereo not drawn)	–	> 200	> 200
O=S(Nc1ccccc1)c1ccc(N2CCOCC2)cc1 (stereo not drawn)	–	> 200	18.2
O=C1c2cc(Cc3ccccc3)c(=O)c(Cc3ccccc3)cc2C(=O)c2cc(Cc3ccccc3)c(=O)c(Cc3ccccc3)cc21	–	> 200	> 200
COc1cccc(CCNc2c(C#N)c3n(c4ccccc4[n+]3C)c3ncccc23)c1	–	> 200	1
COc1ccc2c(c1)c(=O)c1c(NCCNCCO)ccc3c(=O)n(CCN(C)C)c(=O)n2c31	–	> 0.0427	0.0339
CCOC(=O)[C@H](O)[C@@H](O)C(=O)NCc1ccc(C(=O)c2ccccc2)cc1	–	> 200	> 200
Cc1ccc(C)c(COCCOCn2c(=O)[nH]c(=O)c3cc(Br)ccc32)c1	–	> 200	> 200
CN(C)c1nc(Oc2nc(N(C)C)nc(N(C)C)n2)nc(N(C)C)n1	–	> 724	17.4
CC(C)(C)C(=O)/C=C/c1ccc(C#N)cc1	inactive	–	38.9

Compound	outcome	EC50 [µM]	IC50 [µM]
OCCN1CCN(CCO)Cc2ccccc2OCCOc2ccccc2C1	–	> 245	97.7
COc1ccc(C2OC2C(=O)C23CC4CC(CC(C4)C2)C3)cc1 (stereo not drawn)	–	> 200	52.5
O=C1C(c2ccc(Cl)cc2)=[N+]([O-])c2ccccc21	inactive	–	–
CSc1ccc(-c2cn3ccsc3n2)c(O)c1	–	> 85.1	17.4
CC(=O)N1OC2(C)c3ccccc3C1(C)c1ccccc12	–	> 25.7	23.4
Nc1nc2c(c(-c3ccc(F)cc3)n1)COC/C2=C\c1ccc(F)cc1	–	> 200	158
O=CN/C=C/c1cc(O)ccc1O	–	> 79.4	4.57
COc1cc(O)c2c(=O)c(OC)c(-c3ccc4c(c3)OCO4)oc2c1	–	> 200	> 200
CC(=O)C(=C(I)I)c1ccccc1	inactive	–	–
CCCCC1(C)C=C/C(=C2/C(=O)O/C(=C\C(=O)O)C2=O)O1 (stereo not drawn)	–	> 851	> 851
Clc1ccc2nc3nc(-c4ccccc4)c(-c4ccccc4)nc3nc2c1	–	> 19.5	> 19.5
O=C(O)c1ccccc1C(=O)c1ccccc1	–	> 200	> 200
CCCCCCCCCCCCCCCCCC(=O)OCC(COC1OC(COS(=O)(=O)O)C(O)C(O)C1O)OC(=O)CCCCCCCCCCCCCCCCC (stereo not drawn)	inactive	–	–
COc1ccc2c(c1)nc1n2C(c2c(Cl)cccc2Cl)SC1 (stereo not drawn)	–	> 200	33.1
COC[C@@H](N=Cc1ccc([N+](=O)[O-])cc1)C(C)C	–	> 200	67.6
C=CCn1nnc2ccccc2c1=O	–	> 692	> 692
CCCCCCCCCCCC(=O)c1c(O)c2ccccc2oc1=O	–	> 200	155
COc1ccc2[nH]c3c4c(c5cc(C(C)(C)C)ccc5c3c2c1)C(=O)N(c1ccccc1)C4=O	inactive	–	–
c1ccc(N/N=C2\CC(c3ccccc3)Oc3ccccc32)cc1 (stereo not drawn)	–	> 200	22.4
COc1cc(CO)c(-c2c(CO)cc(OC)c(OC)c2OC)c(OC)c1OC	–	> 631	> 631
O=C(O)c1c2c(nc3ccccc13)-c1ccccc1C1(CCCC1)C2	–	> 468	170
